From PubChem BioAssay AID651762 (The Scripps Research Institute Molecular Screening Center, 2012)
The source made the active and inactive calls. No rule for the calls is given here.

Each molecule was assayed against Mu-type opioid receptor (Homo sapiens) (UniProt P35372) (assay: activators of OPRM1-OPRD1 heterodimerization, late-stage follow-up, cell-based, luminescence, dose response, set 2 (AID 651762)). Conditions: cell-based heterodimer formation, luminescence complementation.
Mu-type opioid receptor (Homo sapiens), sequence (P35372 whole entry, looked up): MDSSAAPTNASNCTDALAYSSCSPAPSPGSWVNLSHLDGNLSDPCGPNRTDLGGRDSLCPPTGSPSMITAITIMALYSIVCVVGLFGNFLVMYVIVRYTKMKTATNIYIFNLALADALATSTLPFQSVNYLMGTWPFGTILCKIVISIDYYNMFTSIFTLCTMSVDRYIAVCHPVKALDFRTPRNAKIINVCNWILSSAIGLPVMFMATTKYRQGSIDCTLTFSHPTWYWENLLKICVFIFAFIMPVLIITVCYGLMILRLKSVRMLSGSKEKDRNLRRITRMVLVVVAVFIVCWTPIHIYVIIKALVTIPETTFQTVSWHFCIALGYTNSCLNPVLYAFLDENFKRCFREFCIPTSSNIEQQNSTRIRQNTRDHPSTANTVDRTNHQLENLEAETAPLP

EC50	Structure (SMILES)
> 50 µM (inactive)	CCOC(=O)C1CCN(C(=O)c2ccc(N(C)C)cc2)CC1
0.394 µM	CCOC(=O)C1(Cc2ccccc2Cl)CCN(Cc2ccc(NC(C)=O)cc2)CC1
> 50 µM (inactive)	CCOC(=O)C1(Cc2ccccc2C)CCCN(Cc2ccc(NC(C)=O)cc2)C1 (stereo not drawn)
> 50 µM (inactive)	CCOC(=O)C1CCCCN1Cc1ccc(NC(C)=O)cc1 (stereo not drawn)
> 50 µM (inactive)	CCOC(=O)C1CCN(CCC(=O)Nc2ccc(C)cc2)CC1
5.16 µM	CC(=O)Nc1ccc(CN2CCCC(CO)(CCc3ccccc3)C2)cc1 (stereo not drawn)
> 50 µM (inactive)	CCOC(=O)C1(Cc2cccc(OC)c2)CCCN(Cc2ccc(NC(C)=O)cc2)C1 (stereo not drawn)
> 50 µM (inactive)	CCOC(=O)C1(CCOC)CCN(Cc2ccc(NC(C)=O)cc2)CC1
> 50 µM (inactive)	CCOC(=O)C1(CCOC)CCCN(Cc2ccc(NC(C)=O)cc2)C1 (stereo not drawn)
> 50 µM (inactive)	CCOC(=O)C1CCN(Cc2ccc(N(C)C)cc2)CC1
> 50 µM (inactive)	O=C(O)C1CCCCC1C(=O)Nc1ccc(CN2CCCCC2)cc1 (stereo not drawn)
> 50 µM (inactive)	CCOC(=O)C1CCN(Cc2ccc(NC(C)=O)cc2)CC1
> 50 µM (inactive)	CCOC(=O)C1(CC2CC2)CCN(Cc2ccc(NC(C)=O)cc2)CC1
> 50 µM (inactive)	CCOC(=O)C1(CCOc2ccccc2)CCCN(Cc2ccc(NC(C)=O)cc2)C1 (stereo not drawn)
> 50 µM (inactive)	CCOC(=O)C1(Cc2ccccc2)CCCN(Cc2ccc(NC(C)=O)cc2)C1 (stereo not drawn)

The remaining lines, values behind:

Structure (SMILES)	EC50
CCOC(=O)C1(CCc2ccccc2)CCN(Cc2ccc(O)cc2)CC1	> 50 µM (inactive)
CCOC(=O)C1(CCc2ccccc2)CCN(C(=O)Nc2ccc(C)cc2C)CC1	> 50 µM (inactive)
CCOC(=O)C1(Cc2ccc(OC)cc2)CCN(C(=O)c2ccc(N(C)C)cc2)CC1	> 50 µM (inactive)
C=Cc1ccc(C(=O)N2CCC(CCc3ccccc3)(C(=O)OCC)CC2)cc1	> 50 µM (inactive)
CCOC(=O)C1(CCc2ccccc2)CCN(Cc2ccc(OC)cc2)CC1	0.206 µM
CCOC(=O)C1(CC2CC2)CCN(C(=O)c2ccc(N3CCCCC3)cc2)CC1	> 50 µM (inactive)
CCOC(=O)C1(CCc2ccccc2)CCN(Cc2ccc(C#CC(C)(C)O)cc2)CC1	> 50 µM (inactive)
CCOC(=O)C1(CCc2ccccc2)CCN(Cc2ccncc2)CC1	> 50 µM (inactive)
CCOC(=O)C1(CCc2ccccc2)CCN(Cc2c(O)cccc2OC)CC1	0.605 µM
C=Cc1ccc(C(=O)N2CCC(CCCc3ccccc3)(C(=O)OCC)CC2)cc1	> 50 µM (inactive)
CCOC(=O)C1(CCOC)CCN(Cc2ccc(N(C)c3ccccc3)cc2)CC1	> 50 µM (inactive)
CCOC(=O)C1(CCc2ccccc2)CCCN(Cc2ccc(N3CCNC3=O)cc2)C1 (stereo not drawn)	> 50 µM (inactive)
CCOC(=O)C1(CCc2ccccc2)CCN(Cc2ccc(C(=O)OC)cc2)CC1	> 50 µM (inactive)
